In patent US12281057B2 (VERTEX PHARMACEUTICALS INCORPORATED, priority 2017, dated 2025):
Where two headings read alike, the source gives them in different places. Each block holds one compound with its values, some of them ahead of it.

Target: truncated form of human NaV 1.8 with full channel activity (Homo sapiens, UniProt Q9Y5Y9)
Test: E-VIPR Assay Method A for detecting and measuring Nav inhibition (HEK cells, membrane potential FRET dyes, electrical stimulation)
Format: cell-based
Conditions: HEK cells expressing human NaV 1.8, HS (human serum) in compound loading buffer, 11 point dose response, top dose 3 μM
Source text: E-VIPR Assay Method A for Detecting and Measuring Nav Inhibition Properties Sodium ion channels are voltage-dependent proteins that can be activated by inducing membrane voltage changes by applying electric fields. The electrical stimulation instrument and methods of use, referred to as E-VIPR, are described in International Publication No. WO 2002/008748 A3 and C.-J. Huang et al. Characterization of voltage-gated sodium channel blockers by electrical stimulation and fluorescence detection of membrane potential, 24 Nature Biotech. 439-46 (2006), both of which are incorporated by reference in their entirety. The instrument comprises a microtiter plate handler, an optical system for exciting the coumarin dye while simultaneously recording the coumarin and oxonol emissions, a waveform generator, a current- or voltage-controlled amplifier, and parallel electrode pairs that are inserted into assay plate wells. Under integrated computer control, this instrument passes user-programmed electrical stimulus protocols to cells within the wells of the microtiter plate. […] Sigma #F4135), 1% NEAA (Non-Essential Amino Acids, Life Tech #11140), 1% HEPES (Life Tech #15630), 1% Pen-Strep (Penicillin-Streptomycin; […] Cells were expanded in vented cap flasks, with 95% humidity and 5% CO2. Reagents and Stock Solutions: • 100 mg/mL Pluronic F-127 (Sigma #P2443), in dry DMSO • Compound Plates: […] 5% KIR 2.1 Bacmam virus (produced in-house), prepared as described in Section 3.3 of J. A. […] The solution was made by adding 10% Pluronic F127 stock equal to combined volumes of CC2-DMPE and DiSBAC6(3). The order of preparation was first mix Pluronic and CC2-DMPE, then add DiSBAC6(3), then while vortexing add Bath1/β-Cyclodextrin. […] Assay Protocol: […] Final DMSO concentration for all wells in the assay was 0.625% (0.75% DMSO was supplemented to the Compound Loading Buffer for a final DMSO concentration of 0.625%). […] 3) Cell plates were prepared. On the day of the assay, the media was aspirated, and the cells were washed three times with 80 μL of Bath-1 buffer, maintaining 25 μL residual volume in each well. 4) 25 μL per well of Hexyl Dye Solution was dispensed into the cell plates. The cells were incubated for 20 minutes at room temp or ambient conditions in darkness. 5) 80 μL per well of Compound Loading Buffer was dispensed into compound plates. 6) The cell plates were washed three times with 80 μL per well of Bath-1 Buffer, leaving 25 µL of residual volume. Then 25 uL per well from compound plate was transferred to each cell plate. The mixture was incubated for 30 minutes at room temp/ambient conditions. 7) The plate was read on E-VIPR using the current-controlled amplifier to deliver stimulation wave pulses using the following protocol: 1.25 Amps, 2.5 ms pulse width biphasic waveform, 10 Hz for 10 seconds at a scan rate of 200 Hz. A pre-stimulus recording was performed for 0.5 seconds to obtain the un-stimulated intensities baseline. The stimulatory waveform was followed by 0.5 seconds of post-stimulation recording to examine the relaxation to the resting state. Data Analysis: Data were analyzed and reported as normalized ratios of emission intensities measured in the 460 nm and 580 nm channels. The response as a function of time was reported as the ratios obtained using the following formula: […] The data were further reduced by calculating the initial (Ri) and final (Rf) ratios. These were the average ratio values during part or all of the pre-stimulation period and during sample points during the stimulation period. The fluorescence ratio (Rf/Ri) was then calculated and reported as a function of time. Control responses were obtained by performing assays in the presence of the positive control, and in the absence of pharmacological agents (DMSO vehicle negative control). Responses to the negative (N) and positive (P) controls were calculated as above. The compound antagonist % activity A was then defined as: [formula] where X is the ratio response of the test compound. […]

[1] = Table 20A, read-out: Nav 1.8 MedChem Optical Assay EVIPR Assay Method A HS IC50
[2] = Table 20, read-out: Nav 1.8 MedChem Optical Assay EVIPR Assay Method A HS IC50

Chain of truncated form of human NaV 1.8 with full channel activity (Q9Y5Y9 126-1722 limits assumed): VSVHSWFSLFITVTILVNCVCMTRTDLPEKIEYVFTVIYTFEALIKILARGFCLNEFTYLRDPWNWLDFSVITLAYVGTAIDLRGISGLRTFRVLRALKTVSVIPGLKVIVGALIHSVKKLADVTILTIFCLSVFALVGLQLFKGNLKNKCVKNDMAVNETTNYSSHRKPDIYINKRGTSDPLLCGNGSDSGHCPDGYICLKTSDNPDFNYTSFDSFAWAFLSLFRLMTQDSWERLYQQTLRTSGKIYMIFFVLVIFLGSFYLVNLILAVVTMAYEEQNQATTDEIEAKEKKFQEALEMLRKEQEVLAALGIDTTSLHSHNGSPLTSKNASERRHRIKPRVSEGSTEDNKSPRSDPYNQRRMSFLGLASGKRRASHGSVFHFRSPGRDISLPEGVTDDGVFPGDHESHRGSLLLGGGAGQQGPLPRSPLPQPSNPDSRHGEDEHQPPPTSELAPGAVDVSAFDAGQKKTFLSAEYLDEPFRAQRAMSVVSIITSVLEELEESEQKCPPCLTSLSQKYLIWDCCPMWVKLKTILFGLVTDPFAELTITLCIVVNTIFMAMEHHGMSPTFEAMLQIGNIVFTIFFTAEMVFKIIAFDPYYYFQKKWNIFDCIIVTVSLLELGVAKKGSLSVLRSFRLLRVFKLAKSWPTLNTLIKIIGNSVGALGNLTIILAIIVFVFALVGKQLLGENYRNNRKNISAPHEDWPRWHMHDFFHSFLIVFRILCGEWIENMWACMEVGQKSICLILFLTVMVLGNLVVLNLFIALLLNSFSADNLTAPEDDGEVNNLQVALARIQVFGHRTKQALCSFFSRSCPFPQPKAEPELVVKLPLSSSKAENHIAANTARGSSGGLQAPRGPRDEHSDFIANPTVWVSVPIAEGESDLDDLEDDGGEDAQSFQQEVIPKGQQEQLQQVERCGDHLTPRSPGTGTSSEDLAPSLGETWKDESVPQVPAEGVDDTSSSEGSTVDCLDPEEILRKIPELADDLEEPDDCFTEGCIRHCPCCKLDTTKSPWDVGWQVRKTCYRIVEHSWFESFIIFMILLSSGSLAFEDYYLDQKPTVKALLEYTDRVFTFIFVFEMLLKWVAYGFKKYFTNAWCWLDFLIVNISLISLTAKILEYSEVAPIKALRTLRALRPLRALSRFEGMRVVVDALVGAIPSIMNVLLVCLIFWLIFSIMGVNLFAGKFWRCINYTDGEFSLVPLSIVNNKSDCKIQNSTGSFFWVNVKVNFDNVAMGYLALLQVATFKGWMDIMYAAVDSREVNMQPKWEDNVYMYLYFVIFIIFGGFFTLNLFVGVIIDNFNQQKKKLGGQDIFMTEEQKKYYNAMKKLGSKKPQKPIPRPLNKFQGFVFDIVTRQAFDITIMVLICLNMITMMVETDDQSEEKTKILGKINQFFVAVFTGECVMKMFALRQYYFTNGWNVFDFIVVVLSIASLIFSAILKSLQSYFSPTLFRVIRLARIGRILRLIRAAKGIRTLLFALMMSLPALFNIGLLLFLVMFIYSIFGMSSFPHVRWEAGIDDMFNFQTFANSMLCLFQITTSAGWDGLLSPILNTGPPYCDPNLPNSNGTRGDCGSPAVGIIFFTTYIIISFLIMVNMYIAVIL

Structure (SMILES): COc1cc(OC(F)(F)F)ccc1Oc1cc(OC(F)F)cc(F)c1C(=O)Nc1ccnc(C(N)=O)c1 [Compound 20, 4-[[4-(difluoromethoxy)-2-fluoro-6-[2-methoxy-4-(trifluoromethoxy)phenoxy]benzoyl]amino]pyridine-2-carboxamide]
IC50 [2]: 0.01 µM

Structure (SMILES): COc1cc(OC(F)(F)F)ccc1Oc1cc(C(F)(F)F)cc(F)c1C(=O)Nc1ccc(C(N)=O)nc1 [Compound 187, 5-[[2-Fluoro-6-[2-methoxy-4-(trifluoromethoxy)phenoxy]-4-(trifluoromethyl)benzoyl]amino]pyridine-2-carboxamide]
IC50 [1]: 0.053 µM

Structure (SMILES): [2H]C([2H])([2H])Oc1cc(OC(F)(F)F)ccc1Oc1cc(C(F)(F)F)cc(C(F)(F)F)c1C(=O)Nc1ccnc(C(N)=O)c1 [Compound 175, 4-[[2-[2-(Trideuteriomethoxy)-4-(trifluoromethoxy)phenoxy]-4,6-bis(trifluoromethyl)benzoyl]amino]pyridine-2-carboxamide]
IC50 [1]: 0.038 µM

Structure (SMILES): COc1cc(OC(F)(F)F)ccc1Oc1cc(C2CC2(F)F)ncc1C(=O)Nc1ccnc(C(N)=O)c1 (centres unmarked) [Compound 107, N-(2-Carbamoyl-4-pyridyl)-6-(2,2-difluorocyclopropyl)-4-[2-methoxy-4-(trifluoromethoxy)phenoxy]pyridine-3-carboxamide]
IC50 [1]: 0.123 µM

Structure (SMILES): COc1cc(OC(F)(F)F)ccc1Oc1ccc(F)c(Cl)c1C(=O)Nc1cc(C(N)=O)ncc1C [Compound 129, 4-[[2-Chloro-3-fluoro-6-[2-methoxy-4-(trifluoromethoxy)phenoxy]benzoyl]amino]-5-methyl-pyridine-2-carboxamide]
IC50 [1]: 0.069 µM

Structure (SMILES): COc1cc(OC(F)(F)F)ccc1Oc1ccc(F)c(Cl)c1C(=O)Nc1ccc(C(N)=O)nc1 [Compound 186, 5-[[2-Chloro-3-fluoro-6-[2-methoxy-4-(trifluoromethoxy)phenoxy]benzoyl]amino]pyridine-2-carboxamide]
IC50 [1]: 0.19 µM

Structure (SMILES): COc1c(C(F)(F)F)ccc(Oc2ccc(OC(F)(F)F)cc2)c1C(=O)Nc1ccc(C(N)=O)c(F)c1 [Compound 132, N-(4-Carbamoyl-3-fluoro-phenyl)-2-methoxy-6-[4-(trifluoromethoxy)phenoxy]-3-(trifluoromethyl)benzamide]
IC50 [1]: 0.14 µM

Structure (SMILES): [2H]C([2H])([2H])Oc1cc(OC(F)(F)F)ccc1Oc1cc(C(F)(F)F)cc(C(F)(F)F)c1C(=O)Nc1ccc(C(N)=O)nc1 [Compound 176, 5-[[2-[2-(Trideuteriomethoxy)-4-(trifluoromethoxy)phenoxy]-4,6-bis(trifluoromethyl)benzoyl]amino]pyridine-2-carboxamide]
IC50 [1]: 0.19 µM

Structure (SMILES): COc1cc(OC(F)(F)F)ccc1Oc1cc(C(F)(F)F)ncc1C(=O)Nc1cc(C)nc(C(N)=O)c1 [Compound 84, 4-[[4-[2-Methoxy-4-(trifluoromethoxy)phenoxy]-6-(trifluoromethyl)pyridine-3-carbonyl]amino]-6-methyl-pyridine-2-carboxamide]
IC50 [1]: 0.58 µM

Structure (SMILES): COc1cc(OC(F)(F)F)ccc1Oc1cncc(OC)c1C(=O)Nc1ccc(F)c(C(N)=O)c1 [Compound 138, N-(3-Carbamoyl-4-fluoro-phenyl)-3-methoxy-5-[2-methoxy-4-(trifluoromethoxy)phenoxy]pyridine-4-carboxamide]
IC50 [1]: 1.4 µM

Structure (SMILES): [2H]C([2H])([2H])Oc1cc(OC(F)(F)F)ccc1Oc1cc(C2CC2)ncc1C(=O)Nc1ccc(F)c(C(N)=O)c1 [Compound 88, N-(3-Carbamoyl-4-fluoro-phenyl)-6-cyclopropyl-4-[2-(trideuteriomethoxy)-4-(trifluoromethoxy)phenoxy]pyridine-3-carboxamide]
IC50 [1]: 0.049 µM

Structure (SMILES): NC(=O)c1cc(NC(=O)c2c(Oc3ccc(OC(F)(F)F)cc3Cl)ccc(C(F)(F)F)c2F)ccc1F [Compound 9, N-(3-carbamoyl-4-fluoro-phenyl)-6-[2-chloro-4-(trifluoromethoxy)phenoxy]-2-fluoro-3-(trifluoromethyl)benzamide]
IC50 [2]: 0.003 µM

Structure (SMILES): COc1cc(OC(F)(F)F)ccc1Oc1cc2c(cc1C(=O)Nc1ccc(F)c(C(N)=O)c1)OC(F)(F)O2 [Compound 122, N-(3-Carbamoyl-4-fluoro-phenyl)-2,2-difluoro-6-[2-methoxy-4-(trifluoromethoxy)phenoxy]-1,3-benzodioxole-5-carboxamide]
IC50 [1]: 0.056 µM

Second part, the compound after the results:

IC50 [1]: 0.034 µM
Structure (SMILES): COc1cc(OC(F)(F)F)ccc1Oc1cc(C(C)(C)F)ncc1C(=O)Nc1ccc(F)c(C(N)=O)c1 [Compound 103, N-(3-Carbamoyl-4-fluoro-phenyl)-6-(1-fluoro-1-methyl-ethyl)-4-[2-methoxy-4-(trifluoromethoxy)phenoxy]pyridine-3-carboxamide]

IC50 [1]: 0.02 µM
Structure (SMILES): COc1cc(OC(F)(F)F)ccc1Oc1ccc(C(F)(F)F)c(F)c1C(=O)Nc1ccnc(C(=O)N(C)C)c1 [Compound 97, 4-[[2-fluoro-6-[2-methoxy-4-(trifluoromethoxy)phenoxy]-3-(trifluoromethyl)benzoyl]amino]-N,N-dimethyl-pyridine-2-carboxamide]

IC50 [1]: 0.032 µM
Structure (SMILES): COc1cc(OC(F)(F)F)ccc1Oc1ccc(C(F)(F)F)c(F)c1C(=O)Nc1cc(C)nc(C(N)=O)c1 [Compound 86, 4-[[2-fluoro-6-[2-methoxy-4-(trifluoromethoxy)phenoxy]-3-(trifluoromethyl)benzoyl]amino]-6-methyl-pyridine-2-carboxamide]

IC50 [1]: 0.008 µM
Structure (SMILES): [2H]C([2H])([2H])Oc1c(Oc2cc(C(F)(F)F)cc(F)c2C(=O)Nc2ccnc(C(N)=O)c2)ccc(OC(F)(F)F)c1F [Compound 223, 4-[[2-Fluoro-6-[3-fluoro-2-(trideuteriomethoxy)-4-(trifluoromethoxy)phenoxy]-4-(trifluoromethyl)benzoyl]amino]pyridine-2-carboxamide]

IC50 [1]: 0.027 µM
Structure (SMILES): COc1cc(OC(F)(F)F)ccc1Oc1ccc(C(F)(F)F)c(F)c1C(=O)Nc1ccnc(C(N)=O)n1 [Compound 207, 4-[[2-Fluoro-6-[2-methoxy-4-(trifluoromethoxy)phenoxy]-3-(trifluoromethyl)benzoyl]amino]pyrimidine-2-carboxamide]

IC50 [1]: 0.009 µM
Structure (SMILES): [2H]c1cc(F)c(C(N)=O)cc1NC(=O)c1c(Oc2c([2H])cc(OC(F)(F)F)c([2H])c2[2H])ccc(C(F)(F)F)c1F [Compound 213, N-(5-Carbamoyl-2-deuterio-4-fluoro-phenyl)-2-fluoro-6-[2,3,6-trideuterio-4-(trifluoromethoxy)phenoxy]-3-(trifluoromethyl)benzamide]

IC50 [1]: 0.02 µM
Structure (SMILES): COc1cc(OC(F)(F)F)ccc1Oc1cc(C(F)(F)F)ncc1C(=O)Nc1ccc(F)c(C(N)=O)c1 [Compound 30, N-(3-Carbamoyl-4-fluoro-phenyl)-4-[2-methoxy-4-(trifluoromethoxy)phenoxy]-6-(trifluoromethyl)pyridine-3-carboxamide]

IC50 [1]: 0.017 µM
Structure (SMILES): NC(=O)c1cc(NC(=O)c2c(Oc3ccc(OC(F)(F)F)c(Cl)c3)ccc(C(F)(F)F)c2F)ccn1 [Compound 53]

IC50 [1]: 0.005 µM
Structure (SMILES): COc1cc(OC(F)(F)F)ccc1Oc1ccc(C(F)(F)F)c(F)c1C(=O)Nc1cc(C(N)=O)ncc1C [Compound 120, 4-[[2-Fluoro-6-[2-methoxy-4-(trifluoromethoxy)phenoxy]-3-(trifluoromethyl)benzoyl]amino]-5-methyl-pyridine-2-carboxamide]

IC50 [1]: 0.005 µM
Structure (SMILES): [2H]C([2H])([2H])Oc1c(Oc2ccc(Cl)c(F)c2C(=O)Nc2ccnc(C(N)=O)c2)ccc(OC(F)(F)F)c1F [Compound 220, 4-[[3-Chloro-2-fluoro-6-[3-fluoro-2-(trideuteriomethoxy)-4-(trifluoromethoxy)phenoxy]benzoyl]amino]pyridine-2-carboxamide]
